According to ChEMBL document CHEMBL4330083, “Synthesis and evaluation of isoprenylation-resveratrol dimer derivatives against Alzheimer's disease” (Eur J Med Chem, 2019):
Calls of active or inactive are those of the source. The calls are words filed in the database; no cut-off is given here.

Tests used:
[1] = Antioxidant activity assessed as ferric ion reduction by measuring trolox equivalents after 3 to 5 mins by FRAP assay; type: functional
[2] = test system: PC-12; assay: Neuroprotection against rotenone-induced cell death in rat PC12 cells preincubated for 4 hrs followed by rotenone addition measured after 24 hrs by MTT assay; type: functional, cell-based
[3] = target: T1, Amine oxidase [flavin-containing] B (Homo sapiens, UniProt P27338)
T1 sequence (P27338 whole entry): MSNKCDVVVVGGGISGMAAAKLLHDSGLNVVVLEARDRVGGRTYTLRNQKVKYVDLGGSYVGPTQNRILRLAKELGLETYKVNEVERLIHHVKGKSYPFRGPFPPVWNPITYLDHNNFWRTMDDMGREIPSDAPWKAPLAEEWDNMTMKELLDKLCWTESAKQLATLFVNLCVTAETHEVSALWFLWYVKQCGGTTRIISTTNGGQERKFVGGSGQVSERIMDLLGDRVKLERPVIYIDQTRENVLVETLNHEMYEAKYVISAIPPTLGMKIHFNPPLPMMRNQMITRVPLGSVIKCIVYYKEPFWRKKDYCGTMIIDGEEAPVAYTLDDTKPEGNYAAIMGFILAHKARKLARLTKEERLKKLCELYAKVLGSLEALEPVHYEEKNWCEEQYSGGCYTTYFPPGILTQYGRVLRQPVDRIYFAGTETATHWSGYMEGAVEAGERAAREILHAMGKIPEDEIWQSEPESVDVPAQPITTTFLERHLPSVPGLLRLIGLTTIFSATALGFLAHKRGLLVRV

[4] = organism: Homo sapiens; assay: Antiinflammatory activity in […] cells assessed as inhibition of LPS-induced TNF-alpha release preincubated for 1 hr followed by LPS addition measured after 18 hrs by ELISA; type: functional, cell-based
[5] = test system: PC-12; assay: Neuroprotection against oligomycin A-induced cell death in rat PC12 cells preincubated for 4 hrs followed by oligomycin A addition measured after 24 hrs by MTT assay; type: functional, cell-based
[6] = test system: PC-12; assay: Neuroprotection against H2O2-induced oxidative damage in rat PC12 cells assessed as late apoptotic cells at 5 uM after 24 hrs in presence of H2O2 by annexin V-FITC/propidium iodide staining based flow cytometric analysis (reference value: 29.8%); type: functional
[7] = test system: PC-12; assay: Neurotoxicity in rat PC12 cells at 30 uM after 24 hrs by MTT assay; type: toxicity, cell-based; settings: pc-12, 24 h
[8] = test system: PC-12; assay: Neuroprotection against H2O2-induced oxidative damage in rat PC12 cells assessed as mitochondrial membrane potential at 10 uM after 24 hrs in presence of H2O2 by Jc-1 staining based flow cytometric analysis (reference value: 16.35 +/- 3.19%); type: functional
[9] = organism: Homo sapiens; assay: Neuroprotection against LPS-induced inflammation in […] cells assessed as reduction in nitric oxide production at 10 to 25 uM after 18 hrs by Griess reagent based assay; type: functional, cell-based
[10] = Antioxidant activity assessed as inhibition of DPPH free radical after 30 mins by UV-Visible spectrophotometric analysis; type: functional
[11] = in vitro; set-up: dose or concentration left out as unconfirmed; settings: PAMPA
Description: Effective permeability of the compound at 100 mg/ml incubated for 16 hrs by PAMPA-BBB assay

[12] = test system: PC-12; assay: Neuroprotection against H2O2-induced oxidative damage in rat PC12 cells assessed as early apoptotic cells at 10 uM after 24 hrs in presence of H2O2 by annexin V-FITC/propidium iodide staining based flow cytometric analysis (reference value: 2.1%); type: functional
[13] = Antioxidant activity assessed as ABTS radical cation scavenging activity by measuring trolox equivalents after 150 mins; type: functional
[14] = test system: PC-12; assay: Neuroprotection against H2O2-induced cell death in rat PC12 cells at 6.25 to 25 uM preincubated for 4 hrs followed by H2O2 addition measured after 24 hrs by MTT assay; type: functional, cell-based
[15] = test system: PC-12; assay: (§1) Neuroprotection against H2O2-induced oxidative damage in rat PC12 cells assessed as reduction in ROS production preincubated for 4 hrs followed by H2O2 addition and measured after 24 hrs by DCFH-DA staining-based flow cytometric analysis; type: functional, cell-based
[16] = target: T2, Amine oxidase [flavin-containing] A (Homo sapiens, UniProt P21397); assay: Inhibition of human MAO-A preincubated for 15 mins followed by p-tyramine substrate addition and measured after 20 mins by Amplex red reagent based fluorescence assay
T2 sequence (P21397 whole entry): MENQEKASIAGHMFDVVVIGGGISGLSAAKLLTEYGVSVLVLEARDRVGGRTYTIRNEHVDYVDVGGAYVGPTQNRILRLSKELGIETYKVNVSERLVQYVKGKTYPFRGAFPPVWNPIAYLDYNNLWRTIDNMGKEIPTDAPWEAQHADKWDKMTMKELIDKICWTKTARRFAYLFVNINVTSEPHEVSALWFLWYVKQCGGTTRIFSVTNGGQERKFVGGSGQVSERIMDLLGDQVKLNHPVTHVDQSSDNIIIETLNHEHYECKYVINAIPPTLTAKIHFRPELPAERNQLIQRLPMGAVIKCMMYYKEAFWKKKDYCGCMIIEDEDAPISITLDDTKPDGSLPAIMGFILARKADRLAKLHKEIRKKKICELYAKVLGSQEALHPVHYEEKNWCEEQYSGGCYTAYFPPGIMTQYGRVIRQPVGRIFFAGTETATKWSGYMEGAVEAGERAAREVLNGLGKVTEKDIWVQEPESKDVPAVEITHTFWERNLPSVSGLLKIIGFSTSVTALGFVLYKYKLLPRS

[17] = organism: Homo sapiens; assay: Neuroprotection against LPS-induced inflammation in […] cells assessed as reduction in ROS production after 18 hrs by DCFH-DA staining-based flow cytometric analysis; type: functional, cell-based
[18] = organism: Homo sapiens; assay: Selectivity ratio of IC50 for human MAO-A to IC50 for human MAO-B
[19] = test system: PC-12; assay: Neuroprotection against H2O2-induced oxidative damage in rat PC12 cells assessed as early apoptotic cells at 2.5 uM after 24 hrs in presence of H2O2 by annexin V-FITC/propidium iodide staining based flow cytometric analysis (reference value: 29.3%); type: functional
[20] = test system: PC-12; assay: Neuroprotection against H2O2-induced oxidative damage in rat PC12 cells assessed as necrotic cells at 2.5 uM after 24 hrs in presence of H2O2 by annexin V-FITC/propidium iodide staining based flow cytometric analysis (reference value: 0.4%); type: functional
[21] = test system: PC-12; assay: Neuroprotection against H2O2-induced oxidative damage in rat PC12 cells assessed as viable cells at 5 uM after 24 hrs in presence of H2O2 by annexin V-FITC/propidium iodide staining based flow cytometric analysis (reference value: 64.1%); type: functional; settings: PC-12, 24 h, read-out: Activity
[22] = test system: PC-12; assay: as §1, with “production by measuring mean fluorescence intensity at 2.5 uM” for “production”, “addition” for “addition and”, “analysis (reference value: 102489)” for “analysis”; type: functional
[23] = test system: PC-12; assay: Neuroprotection against H2O2-induced oxidative damage in rat PC12 cells assessed as intracellular Ca2+ level by measuring mean fluorescence intensity at 5 uM after 24 hrs in presence of H2O2 by Fluo-3/AM staining based flow cytometric analysis (reference value: 51697); type: functional
[24] = test system: PC-12; assay: Neuroprotection against H2O2-induced oxidative damage in rat PC12 cells assessed as intracellular Ca2+ level by measuring mean fluorescence intensity at 2.5 uM after 24 hrs in presence of H2O2 by Fluo-3/AM staining based flow cytometric analysis (reference value: 51697); type: functional

Row | SMILES | Activity [1] [equiv] | Activity [2] | IC50 [3] [µM] | inhibition [4] | Activity [5] | Activity [7] | Activity [9] | IC50 [10] [µM] | Papp at 16 h [11] [×10⁻⁶ cm/s] | Activity [13] [equiv] | Activity [14] | Activity [15] | IC50 [16] [µM] | Activity [17] | Ratio IC50 [18] | also measured
1 | CC(C)=CCc1c(O)cc(/C=C/c2ccc3c(c2)[C@H](c2cc(O)c4c(c2)OC(C)(C)CC4)[C@@H](c2ccc(O)cc2)O3)cc1O | 1.97 | Dose-dependent effect | 3.93 | Dose-dependent effect | Dose-dependent effect | Non-Toxic | Active | 35.3 | 6.92 | 1.7 | Active | Dose-dependent effect | 8.12 | Dose-dependent effect | 2.07 | Activity [6]: 12.4%; Activity [8]: 83.23%; Activity [12]: 1.9%
2 | CC(C)=CCc1c(O)cc(/C=C/c2ccc3c(c2)[C@H](c2cc(O)c(CC=C(C)C)c(O)c2)[C@@H](c2ccc(O)cc2)O3)cc1O | 1.74 | Dose-dependent effect | 0.92 | Dose-dependent effect | Dose-dependent effect | Non-Toxic | Active | 47 | 10.1 | 1.43 | Active | Dose-dependent effect | 2.6 | Dose-dependent effect | 2.83 | Activity [19]: 19.4%; Activity [20]: 0.4%; viability at 5 µM [21]: 82.2%; Flu intensity [22]: 97612; Flu intensity [23]: 38796; Flu intensity [24]: 40059
